ChEMBL document CHEMBL5528047, “A Potent SOS1 PROTAC Degrader with Synergistic Efficacy in Combination with KRASG12C Inhibitor” (J Med Chem, 2024)
pIC50: −log10 of the molar value. Active and inactive are the calls of the source. No cut-off for these calls is given here.

Legend:
[1] = molecular target: T1, von Hippel-Lindau disease tumor suppressor/Son of sevenless homolog 1 (Homo sapiens, UniProt Q07889+P40337); experiment: Protac activity at VHL/SOS1 in human PANC-1 cells assessed as SOS1 degradation at 1 uM by Western blotting analysis relative to control; format: cell-based
Target sequence in this assay (P40337 whole entry, looked up): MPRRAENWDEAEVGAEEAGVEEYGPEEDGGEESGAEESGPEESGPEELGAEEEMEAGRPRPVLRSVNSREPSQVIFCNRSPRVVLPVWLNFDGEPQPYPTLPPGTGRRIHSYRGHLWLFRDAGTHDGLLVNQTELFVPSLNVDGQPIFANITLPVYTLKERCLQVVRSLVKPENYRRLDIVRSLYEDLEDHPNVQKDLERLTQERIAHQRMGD
Target sequence in this assay (Q07889 whole entry, looked up): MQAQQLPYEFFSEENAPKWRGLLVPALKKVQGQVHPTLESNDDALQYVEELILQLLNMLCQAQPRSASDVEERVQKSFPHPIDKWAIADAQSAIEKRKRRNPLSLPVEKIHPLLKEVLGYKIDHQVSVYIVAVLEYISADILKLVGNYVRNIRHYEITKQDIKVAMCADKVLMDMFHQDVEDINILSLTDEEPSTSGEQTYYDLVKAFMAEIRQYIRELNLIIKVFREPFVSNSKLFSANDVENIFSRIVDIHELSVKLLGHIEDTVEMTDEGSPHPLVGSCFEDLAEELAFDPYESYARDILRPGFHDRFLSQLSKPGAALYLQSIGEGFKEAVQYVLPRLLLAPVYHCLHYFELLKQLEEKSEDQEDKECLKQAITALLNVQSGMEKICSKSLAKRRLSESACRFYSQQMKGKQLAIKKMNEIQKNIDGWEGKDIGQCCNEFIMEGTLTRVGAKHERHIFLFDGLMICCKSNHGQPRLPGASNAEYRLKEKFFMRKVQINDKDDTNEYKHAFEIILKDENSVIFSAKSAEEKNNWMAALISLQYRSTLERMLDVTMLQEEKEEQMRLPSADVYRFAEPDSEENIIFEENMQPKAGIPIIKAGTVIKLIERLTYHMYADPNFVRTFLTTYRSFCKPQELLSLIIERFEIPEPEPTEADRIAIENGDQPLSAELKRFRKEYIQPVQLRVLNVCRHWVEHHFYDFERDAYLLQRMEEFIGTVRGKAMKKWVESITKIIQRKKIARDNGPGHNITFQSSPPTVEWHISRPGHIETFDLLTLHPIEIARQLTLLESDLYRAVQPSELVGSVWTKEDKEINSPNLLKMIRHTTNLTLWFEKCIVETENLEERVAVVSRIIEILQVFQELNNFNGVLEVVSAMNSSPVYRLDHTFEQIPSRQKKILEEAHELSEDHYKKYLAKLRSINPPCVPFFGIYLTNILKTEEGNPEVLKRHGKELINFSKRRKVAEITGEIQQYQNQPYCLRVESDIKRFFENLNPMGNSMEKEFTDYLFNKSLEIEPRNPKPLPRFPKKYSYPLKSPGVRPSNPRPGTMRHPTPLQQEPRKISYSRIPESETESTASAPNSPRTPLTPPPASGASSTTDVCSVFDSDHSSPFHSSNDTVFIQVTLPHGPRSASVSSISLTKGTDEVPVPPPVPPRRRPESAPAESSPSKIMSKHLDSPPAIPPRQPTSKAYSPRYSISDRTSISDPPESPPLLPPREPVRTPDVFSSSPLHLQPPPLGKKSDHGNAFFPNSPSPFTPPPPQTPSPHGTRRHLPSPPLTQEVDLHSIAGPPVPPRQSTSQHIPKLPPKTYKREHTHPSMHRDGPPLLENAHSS

[2] = molecular target: T1, von Hippel-Lindau disease tumor suppressor/Son of sevenless homolog 1; experiment: Protac activity at VHL/SOS1 in human PANC-1 cells assessed as SOS1 degradation at 10 uM by Western blotting analysis relative to control; format: cell-based
Target sequence in this assay (P40337 whole entry, looked up): as the sequence (P40337 whole entry, looked up) above
Target sequence in this assay (Q07889 whole entry, looked up): as the sequence (Q07889 whole entry, looked up) above

[3] = molecular target: T1, von Hippel-Lindau disease tumor suppressor/Son of sevenless homolog 1; experiment: Protac activity at VHL/SOS1 in human K562 cells assessed as SOS1 degradation at 10 uM by Western blotting analysis relative to control; format: cell-based
Target sequence in this assay (P40337 whole entry, looked up): as the sequence (P40337 whole entry, looked up) above
Target sequence in this assay (Q07889 whole entry, looked up): as the sequence (Q07889 whole entry, looked up) above

[4] = molecular target: T1, von Hippel-Lindau disease tumor suppressor/Son of sevenless homolog 1; experiment: Protac activity at VHL/SOS1 in human NCI-H358 cells assessed as SOS1 degradation incubated for 24 hrs by Western blotting analysis; format: cell-based
[5] = molecular target: T1, von Hippel-Lindau disease tumor suppressor/Son of sevenless homolog 1; experiment: Protac activity at VHL/SOS1 in human K562 cells assessed as maximum SOS1 degradation at 0.003 to 10 uM incubated for 24 hrs by Western blotting analysis; format: cell-based; settings: dose 0.003-10 µM
Target sequence in this assay (P40337 whole entry, looked up): as the sequence (P40337 whole entry, looked up) above
Target sequence in this assay (Q07889 whole entry, looked up): as the sequence (Q07889 whole entry, looked up) above

[6] = molecular target: T1, von Hippel-Lindau disease tumor suppressor/Son of sevenless homolog 1; experiment: Protac activity at VHL/SOS1 in human MIA PaCa-2 cells assessed as maximum SOS1 degradation at 0.003 to 10 uM incubated for 24 hrs by Western blotting analysis; format: cell-based; settings: dose 0.003-10 µM
Target sequence in this assay (P40337 whole entry, looked up): as the sequence (P40337 whole entry, looked up) above
Target sequence in this assay (Q07889 whole entry, looked up): as the sequence (Q07889 whole entry, looked up) above

[7] = molecular target: T1, von Hippel-Lindau disease tumor suppressor/Son of sevenless homolog 1; experiment: Protac activity at VHL/SOS1 in human K562 cells assessed as SOS1 degradation at 1 uM incubated for 96 hrs by Western blotting analysis; format: cell-based
Target sequence in this assay (P40337 whole entry, looked up): as the sequence (P40337 whole entry, looked up) above
Target sequence in this assay (Q07889 whole entry, looked up): as the sequence (Q07889 whole entry, looked up) above

[8] = molecular target: T1, von Hippel-Lindau disease tumor suppressor/Son of sevenless homolog 1; experiment: Protac activity at VHL/SOS1 in human MIA PaCa-2 cells assessed as SOS1 degradation at 1 uM incubated for 96 hrs by Western blotting analysis; format: cell-based
[9] = molecular target: T1, von Hippel-Lindau disease tumor suppressor/Son of sevenless homolog 1; experiment: Protac activity at VHL/SOS1 in human PANC-1 cells assessed as SOS1 degradation at 1 uM incubated for 96 hrs by Western blotting analysis; format: cell-based
[10] = molecular target: T1, von Hippel-Lindau disease tumor suppressor/Son of sevenless homolog 1; experiment: Protac activity at VHL/SOS1 in human MIA PaCa-2 cells assessed as SOS1 degradation at 1 uM preincubated with MG132 for 2 hrs followed by compound addition and measured after 3 hrs by Western blotting analysis; format: cell-based
[11] = molecular target: T1, von Hippel-Lindau disease tumor suppressor/Son of sevenless homolog 1; experiment: Protac activity at VHL/SOS1 in human MIA PaCa-2 cells assessed as SOS1 degradation at 1 uM preincubated with MLN4924 for 2 hrs followed by compound addition and measured after 3 hrs by Western blotting analysis; format: cell-based
[12] = molecular target: T1, von Hippel-Lindau disease tumor suppressor/Son of sevenless homolog 1; experiment: Protac activity at VHL/SOS1 in human MIA PaCa-2 cells assessed as SOS1 degradation at 1 uM preincubated with BI3406 for 2 hrs followed by compound addition and measured after 3 hrs by Western blotting analysis; format: cell-based
[13] = molecular target: T1, von Hippel-Lindau disease tumor suppressor/Son of sevenless homolog 1; experiment: Protac activity at VHL/SOS1 in human K562 cells assessed as SOS1 degradation at 1 uM preincubated with MG132 for 2 hrs followed by compound addition and measured after 2 hrs by Western blotting analysis; format: cell-based
[14] = molecular target: T1, von Hippel-Lindau disease tumor suppressor/Son of sevenless homolog 1; experiment: Protac activity at VHL/SOS1 in human K562 cells assessed as SOS1 degradation at 1 uM preincubated with MLN4924 for 2 hrs followed by compound addition and measured after 2 hrs by Western blotting analysis; format: cell-based
[15] = molecular target: T1, von Hippel-Lindau disease tumor suppressor/Son of sevenless homolog 1; experiment: Protac activity at VHL/SOS1 in human K562 cells assessed as SOS1 degradation at 1 uM preincubated with VHL ligand V1 for 2 hrs followed by compound addition and measured after 2 hrs by Western blotting analysis; format: cell-based
[16] = test system: K562; experiment: Downregulation of phosphorylated-ERK level in human K562 cells at 0.3 to 3 uM incubated for 24 hrs by Western blotting analysis; format: functional, cell-based; settings: dose 0.3-3 µM
[17] = test system: K562; experiment: Effect on total MEK level in human K562 cells at 0.3 to 3 uM incubated for 24 hrs by Western blotting analysis; format: functional, cell-based; settings: dose 0.3-3 µM
[18] = test system: K562; experiment: Effect on total ERK level in human K562 cells at 0.3 to 3 uM incubated for 24 hrs by Western blotting analysis; format: functional, cell-based; settings: dose 0.3-3 µM
[19] = test system: NCI-H358; experiment: Inhibition of colony formation in human NCI-H358 cells at 1 to 9 uM incubated for 10 days by crystal violet staining based assay; format: functional, cell-based; settings: dose 1-9 µM, time 10.0 day
[20] = Cmax in ICR mouse at 10 mg/kg, po measured upto 24 hrs by LC-MS/MS analysis; format: ADME, organism-based; settings: in vivo
[21] = AUC(0 to infinity) in ICR mouse at 10 mg/kg, po measured upto 24 hrs by LC-MS/MS analysis; format: ADME, organism-based; settings: in vivo
[22] = test system: K562; experiment: Antitumor activity against human K562 cells xenografted in NOD-SCID mouse assessed as tumor growth inhibition at 5 mg/kg, ip administered as 5 days on and 2 days off schedule for 21 days; format: functional; settings: K562, 120 h, time 5 day, read-out: TGI
[23] = test system: K562; experiment: Antitumor activity against human K562 cells xenografted in NOD-SCID mouse assessed as tumor growth inhibition at 25 mg/kg, ip administered as 5 days on and 2 days off schedule for 21 days; format: functional; settings: K562, 120 h, time 5 day, read-out: TGI
[24] = test system: Mus musculus; experiment: In vivo induction of SOS1 degradation in human K562 cells xenografted in NOD-SCID mouse assessed as reduction in SOS1 level at 25 mg/kg, ip measured after 24 hrs by immunoblotting analysis; format: functional, organism-based
[25] = test system: MIA PaCa-2; experiment: Inhibition of ERK phosphorylation in human MIA PaCa-2 cells at 1 uM measured after 24 to 72 hrs in presence of AMG510 by Western blotting analysis; format: cell-based; settings: time 24-72 hrs
[26] = test system: MIA PaCa-2; experiment: Antiproliferative activity against human MIA PaCa-2 cells incubated for 6 days by CCK8 assay; format: functional, cell-based; settings: MIA PaCa-2, 144 h
[27] = test system: SW837; experiment: Antiproliferative activity against human SW837 cells incubated for 6 days by CCK8 assay; format: functional, cell-based; settings: SW837, 144 h
[28] = test system: MIA PaCa-2; experiment: Induction of apoptosis in human MIA PaCa-2 cells assessed as increase in cleaved PARP-1 level incubated for 24 hrs in presence of 4-((S)-4-acryloyl-2-methylpiperazin-1-yl)-6-fluoro-7-(2-fluoro-6-hydroxyphenyl)-1-(2-isopropyl-4-methylpyridin-3-yl)pyrido[2,3-d]pyrimidin-2(1H)-one by Western blotting assay; format: functional, cell-based
[29] = test system: NCI-H358; experiment: Antitumor activity against human NCI-H358 cells xenografted in BALB/c mouse assessed as tumor growth inhibition at 30 mg/kg, ip administered once daily for 28 days in presence of 10 mg/kg 4-((S)-4-acryloyl-2-methylpiperazin-1-yl)-6-fluoro-7-(2-fluoro-6-hydroxyphenyl)-1-(2-isopropyl-4-methylpyridin-3-yl)pyrido[2,3-d]pyrimidin-2(1H)-one; format: functional; settings: NCI-H358, 672 h, time 28 day, read-out: TGI

Which Activity [1] does the source give for `COc1cc2nc(C)nc(N[C@H](C)c3cc(N)cc(C(F)(F)F)c3)c2cc1OCCCCC(=O)N[C@H](C(=O)N1C[C@H](O)C[C@H]1C(=O)NCc1ccc(-c2scnc2C)cc1)C(C)(C)C` here?
Its Activity is 90.9%.

And the Activity [2]?
Its Activity is 93.9%.

And the Activity [3]?
The Activity was 93.3%.

What about the Activity [4] of the same compound?
Its Activity is “Dose-Dependent Effect”.

What about the DC50 [4] of the same compound?
The DC50 was 0.05 µM.

What about the Emax [5] of the same compound?
Its Emax is greater than 90%.

What about the Emax [6] of the same compound?
Its Emax is greater than 90%.

And the Activity [7]?
Its Activity is “Active”.

What about the Activity [8] of the same compound?
The Activity was “Active”.

What about the Activity [9] of the same compound?
The Activity was “Active”.

And the Activity [10]?
Its Activity is “inactive”.

And the Activity [11]?
The Activity was “inactive”.

And the Activity [12]?
Its Activity is “inactive”.

What about the Activity [13] of the same compound?
The Activity was “inactive”.

And the Activity [14]?
The Activity was “inactive”.

And the Activity [15]?
The Activity was “inactive”.

And the Activity [16]?
The Activity was “Active”.

What about the Activity [17] of the same compound?
The Activity was “inactive”.

And the Activity [18]?
Its Activity is “inactive”.

And the inhibition [19]?
Its inhibition is “Active”.

What about the Cmax [20] of the same compound?
The Cmax was 1650 ng/mL.

And the AUC(0-inf) [21]?
The AUC(0-inf) was 4280 ng·h/mL.

And the inhibition in vivo at 5 mg/kg [22]?
The inhibition in vivo at 5 mg/kg was 56.3%.

And the inhibition in vivo at 25 mg/kg [23]?
Its inhibition in vivo at 25 mg/kg is 72.3%.

What about the Activity [24] of the same compound?
Its Activity is “Active”.

What about the inhibition [25] of the same compound?
Its inhibition is “Active”.

What about the pIC50 [26] of the same compound?
The pIC50 was 5.46.

And the pIC50 [27]?
Its pIC50 is 5.99.

What about the Activity [28] of the same compound?
The Activity was “Active”.

What about the inhibition in vivo at 30 mg/kg [29] of the same compound?
Its inhibition in vivo at 30 mg/kg is 78.8%.
